Publication PMC12723449, “From Pharmacophore to Warhead: NAD^+‐Targeting Triazoles as Mechanism‐Based Sirtuin Inhibitors” (Angewandte Chemie (International Ed. in English), 2025)
Like-named read-outs stand apart in the source and are kept apart here.

Key:
Type in all cases: biochemical
[1] = target: T1, SIRT3 (Homo sapiens, UniProt Q9NTG7); assay: Fluorescence-based deacetylation assay (ZMAL-assay), SIRT3; conditions: 37 °C, assay limit 0.10 µM
T1 construct: Human SIRT3118-395 was expressed and purified as previously described.[5]; made in house
T1 sequence (Q9NTG7 118-395 limits assumed): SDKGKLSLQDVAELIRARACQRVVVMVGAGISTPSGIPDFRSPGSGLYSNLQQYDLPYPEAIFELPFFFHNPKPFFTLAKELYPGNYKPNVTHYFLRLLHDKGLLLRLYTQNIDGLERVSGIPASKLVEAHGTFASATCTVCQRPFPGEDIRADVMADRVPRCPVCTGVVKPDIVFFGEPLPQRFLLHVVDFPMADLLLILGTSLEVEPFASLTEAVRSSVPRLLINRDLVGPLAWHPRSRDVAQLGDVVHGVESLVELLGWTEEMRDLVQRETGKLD
Method: (§1) Determination of IC50 values (SIRT1, SIRT2, SIRT3) via fluorescence-based deacetylation assay […]
(§2) The fluorescence-based deacetylation assay was conducted in a black 384-well microplate (OptiPlate-384 F, PerkinElmer) with a total volume of 30 µL per well and a final DMSO concentration of 2% (v/v) according to a […]
(§3) concentration of 100 nM) in assay buffer (50 mM Tris, 137 mM NaCl, 2.7 mM KCl, 1m MgCl2, 0.01% Tween, 0.05 mg/mL BSA, 0.2 mM TCEP, pH 8.0), 5 µL of substrate (ZMAL, final concentration of 10.5 µM), 5 µL of NAD+ (final concentration of 500 µM) and 10 µL of inhibitor solution (final concentration of 30 µM – 0.014 µM, serial 1:3 dilutions) was incubated at 37 °C and 300 rpm for 4 h. A solution of trypsin (final concentration of 0.5 mg/mL) and nicotinamide (final concentration of 4 mM) was added and incubated at 37 °C and 300 rpm for 30 min to stop the reaction. Samples with 2% (v/v) DMSO instead of inhibitor were prepared as a positive control, and samples with 2% (v/v) DMSO instead of SIRT enzyme were prepared as a negative control. Fluorescence intensity was measured with a microplate reader (λEx = 380-10 nm, λEm = 460 nm, BMG POLARstar Optima, BMG Labtech, Germany). IC50 values were then determined using a nonlinear regression fit with Origin Pro 2019 software. All experiments were performed at least in duplicates. […]

[2] = target: T2, SIRT1 (Homo sapiens, UniProt Q96EB6); assay: Fluorescence-based deacetylation assay (ZMAL-assay), SIRT1; conditions: 37 °C, assay limit 0.10 µM
T2 construct: For assay experiments, strep-tagged human SIRT1134−747 and SIRT256-356 were expressed and purified as previously; Strep-tag; made in house; host or cells: E. coli BL21 Star (DE3)
T2 sequence (Q96EB6 134-747 limits assumed): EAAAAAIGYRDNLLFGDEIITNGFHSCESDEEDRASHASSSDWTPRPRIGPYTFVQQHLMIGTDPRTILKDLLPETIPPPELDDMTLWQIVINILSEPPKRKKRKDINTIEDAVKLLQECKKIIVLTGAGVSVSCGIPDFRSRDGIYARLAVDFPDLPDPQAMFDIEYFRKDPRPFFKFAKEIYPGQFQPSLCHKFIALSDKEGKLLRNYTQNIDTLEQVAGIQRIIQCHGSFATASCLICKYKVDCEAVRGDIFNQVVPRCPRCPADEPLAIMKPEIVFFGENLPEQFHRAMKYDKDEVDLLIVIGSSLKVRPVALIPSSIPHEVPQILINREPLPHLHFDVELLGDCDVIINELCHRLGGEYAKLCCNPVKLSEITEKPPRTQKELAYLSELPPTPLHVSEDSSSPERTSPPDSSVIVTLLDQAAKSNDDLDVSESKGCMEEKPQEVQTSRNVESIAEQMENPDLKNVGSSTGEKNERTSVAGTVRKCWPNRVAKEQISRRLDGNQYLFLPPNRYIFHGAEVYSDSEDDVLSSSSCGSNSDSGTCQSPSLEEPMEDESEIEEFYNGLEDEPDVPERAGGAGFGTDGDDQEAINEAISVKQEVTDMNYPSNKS
Method: as §1, §2, §3

[3] = target: T3, SIRT2 (Homo sapiens, UniProt Q8IXJ6); assay: Fluorescence-based demyristoylation assay (BSA-Assay)
T3 construct: For assay experiments, strep-tagged human SIRT1134−747 and SIRT256-356 were expressed and purified as previously; Strep-tag; made in house; host or cells: E. coli BL21 Star (DE3)
T3 sequence (Q8IXJ6 56-356 limits assumed): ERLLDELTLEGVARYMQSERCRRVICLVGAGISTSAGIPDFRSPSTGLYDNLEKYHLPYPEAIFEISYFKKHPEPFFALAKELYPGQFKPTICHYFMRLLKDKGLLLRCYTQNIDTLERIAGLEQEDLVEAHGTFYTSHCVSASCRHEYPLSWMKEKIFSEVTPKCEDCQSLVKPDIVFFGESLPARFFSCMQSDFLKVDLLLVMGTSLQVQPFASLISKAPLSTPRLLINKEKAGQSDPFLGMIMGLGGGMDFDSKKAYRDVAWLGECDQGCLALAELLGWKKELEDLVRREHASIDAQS
Method: Determination of IC50 values (SIRT2) via fluorescence-based demyristoylation assay (BSA-Assay) The fluorescence-based demyristoylation assay was conducted in a continuous manner in a black 384-well microplate (OptiPlate-384 F, PerkinElmer) with a total volume of 40 µL per well and a final DMSO concentration of 5% (v/v), following a published procedure.[9] A mixture of 14 µL SIRT2 (final concentration of 1 nM) in assay buffer (20 mM Tris, 150 mM NaCl, […], pH 7.8) freshly supplemented with 2 mg/mL of BSA, 14 µL of substrate (F4, KM = 33 ± 5 nM[9], final concentration of 40 nM) and 2 µL of inhibitor solution (final concentration of 100 µM – 0.002 µM, serial 1:2 or 1:4 dilutions) was incubated at 25 °C and 350 rpm for 5 min. Samples with 5% (v/v) DMSO instead of inhibitor were measured as a positive control, and samples with assay buffer and 5% (v/v) DMSO instead of SIRT2 were measured as a negative control. The reaction was started with the addition of 10 µL NAD+ (final concentration of 500 µM) and the product formation was immediately monitored by the change of the fluorescence intensity at 25 °C for 20 min. For NAD+ preincubation experiments, instead of the substrate, 10 µL of NAD+ (final concentration of 500 µM) was added to the solution and incubated at 25 °C and 350 rpm for 15 min. The reaction was started with the addition of 14 µL substrate (final concentration of 40 nM) and the product formation was immediately monitored by the change of the fluorescence intensity at 25 °C every 60 s for 20 min using a microplate reader (λEx = 485 nm, λEm = 530-10 nm, BMG POLARstar Optima, BMG Labtech, Germany).
The activity was normalized using the positive control as 100% and the negative control as 0%. The normalized activity (v/v0) was plotted as a function of the logarithm of the inhibitor concentration [I], and a nonlinear fit was performed according to the following equation to determine the IC50 value.[9] […]

[4] = BSA-Assay, 25 °C, read-out: SIRT2 (demyr.) IC50

Structure (SMILES)	SIRT3 (deac.) IC50 [1]	SIRT1 (deac.) IC50 [2]	IC50 [3, 4]	IC50 ([1]; read-out: SIRT3 (deac.) IC50)	IC50 ([2]; read-out: SIRT1 (deac.) IC50)	IC50 ([3]; 15 min NAD+ preincubation, read-out: IC50, SIRT2 demyristoylation after NAD+ preincubation)	IC50 ([3]; fatty-acylated substrate, without NAD+ preincubation, read-out: IC50, SIRT2 demyristoylation)
Cc1cc(C)nc(SCC(=O)Nc2ncc(Cc3cccc(OCc4c[nH]nn4)c3)s2)n1 [Compound 7]	n.i.	n.i.	> 10000 nM	–	–	–	–
CCCCCCCCCCCCc1cn(CCCC[C@H](NC(=O)[C@H](CCCCN)NC(=O)[C@@H]2CCCN2C(=O)[C@H](CC(C)C)NC(=O)[C@H](C)NC(=O)[C@H](CCC(=O)O)NC(C)=O)C(=O)N[C@H](C(=O)NCC(=O)NCC(N)=O)[C@@H](C)O)nn1 [Compound 6]	–	–	30 ± 10 nM	130 ± 10 nM	< 100 nM	3.6 ± 0.6 nM	28 ± 6 nM
COCCn1cc(COc2cccc(Cc3cnc(NC(=O)CSc4nc(C)cc(C)n4)s3)c2)nn1 [Compound 1, reference compound]	n.i.	n.i.	660 ± 100 nM	–	–	–	–
